Reference: BigSolDB 2.1

O=C(O)c1ccccc1Nc1cccc(C(F)(F)F)c1
solubility (mole fraction)
Settings	in DMSO	in ethanol	in ethylene glycol	in isopropanol	in methanol	in n-butanol	in propylene glycol	in sec-butanol	in transcutol	in water
298.2 K	0.226	0.0681	0.00767	0.0962	0.0439	0.119	0.0126	0.121	0.193	5.83e-07
303.2 K	0.241	0.0747	0.00856	0.105	0.048	0.13	0.0139	0.133	0.211	8.01e-07
308.2 K	0.256	0.0857	0.00975	0.116	0.0531	0.142	0.0153	0.144	0.229	1.02e-06
313.2 K	0.27	0.098	0.0107	0.128	0.0577	0.157	0.0167	0.16	0.251	1.28e-06
318.2 K	0.286	0.112	0.012	0.144	0.0629	0.177	0.0181	0.179	0.278	1.6e-06

Settings	solubility (mole fraction)
in PEG-400, 298.2 K	0.0337
in PEG-400, 303.2 K	0.04
in PEG-400, 308.2 K	0.0469
in PEG-400, 313.2 K	0.054
in PEG-400, 318.2 K	0.0616
